Assay results as given in patent publication US11897887B2, “sGC stimulators” (Tisento Therapeutics Inc., priority 2017, dated 2024).

Each molecule was assayed against T1, sGC enzyme (Homo sapiens, UniProt Q02153) (assay: cGMP GloSensor cell-based assay, 384-well format). Settings: HEK293 cells expressing GloSensor 40F cGMP; 10 μM DETA-NONOate; 55 min incubation; normalized to high control Compound Y (30 μM); read-out: Glo-sGC Absolute EC50.
T1 construct: incorporated into these cells detect cGMP formed by the compounds stimulating the sGC enzyme; host or cells: HEK293 cells stably expressing the GloSensor 40F cGMP biosensor
T1 sequence (Q02153 1-619): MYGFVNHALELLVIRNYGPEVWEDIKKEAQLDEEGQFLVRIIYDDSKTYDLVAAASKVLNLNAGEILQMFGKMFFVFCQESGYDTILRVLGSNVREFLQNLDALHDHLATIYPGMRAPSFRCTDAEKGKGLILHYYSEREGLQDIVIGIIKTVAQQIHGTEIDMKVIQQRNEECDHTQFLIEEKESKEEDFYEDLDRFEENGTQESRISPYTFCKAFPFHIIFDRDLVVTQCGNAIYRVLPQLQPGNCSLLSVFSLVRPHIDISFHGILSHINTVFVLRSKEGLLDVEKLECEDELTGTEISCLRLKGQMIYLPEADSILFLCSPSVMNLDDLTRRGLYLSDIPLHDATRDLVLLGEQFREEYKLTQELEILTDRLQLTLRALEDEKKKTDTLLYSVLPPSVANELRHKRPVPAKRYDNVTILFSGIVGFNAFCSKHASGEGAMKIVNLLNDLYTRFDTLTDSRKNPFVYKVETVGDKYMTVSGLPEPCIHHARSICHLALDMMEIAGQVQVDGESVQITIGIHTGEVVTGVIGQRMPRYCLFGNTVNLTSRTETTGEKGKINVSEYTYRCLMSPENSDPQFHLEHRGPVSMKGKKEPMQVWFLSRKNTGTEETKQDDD
T1 sequence (Q02108 1-690 partner): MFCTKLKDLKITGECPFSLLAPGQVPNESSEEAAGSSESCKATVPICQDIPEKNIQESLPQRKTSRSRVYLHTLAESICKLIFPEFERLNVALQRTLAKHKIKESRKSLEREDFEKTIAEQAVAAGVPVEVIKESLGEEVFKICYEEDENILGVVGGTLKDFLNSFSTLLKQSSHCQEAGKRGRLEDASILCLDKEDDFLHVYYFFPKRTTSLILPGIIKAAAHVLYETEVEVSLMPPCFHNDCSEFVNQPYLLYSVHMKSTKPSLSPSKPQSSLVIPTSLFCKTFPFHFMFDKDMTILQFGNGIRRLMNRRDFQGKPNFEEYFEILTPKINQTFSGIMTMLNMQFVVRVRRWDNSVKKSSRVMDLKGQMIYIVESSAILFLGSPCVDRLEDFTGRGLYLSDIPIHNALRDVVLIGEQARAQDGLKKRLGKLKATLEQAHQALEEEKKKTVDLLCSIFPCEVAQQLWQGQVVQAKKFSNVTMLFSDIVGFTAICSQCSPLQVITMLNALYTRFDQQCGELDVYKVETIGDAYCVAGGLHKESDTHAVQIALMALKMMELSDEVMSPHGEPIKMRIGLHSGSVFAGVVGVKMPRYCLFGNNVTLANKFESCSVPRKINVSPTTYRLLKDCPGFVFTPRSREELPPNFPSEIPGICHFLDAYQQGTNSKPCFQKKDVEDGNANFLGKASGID
Description: Human embryonic kidney cells (HEK293) cells expressing GloSensor™ 40F cGMP (Part No: CS182801, Promega) were used to evaluate the activity of test compounds. The luminescent biosensors (engineered luciferase) that were incorporated into these cells detect cGMP formed by the compounds stimulating the sGC enzyme and emit luminescence.
cGMP GoSensor cells were maintained in Dulbecco's Modification of Eagle's Medium (DMEM) supplemented with fetal bovine serum (FBS, 10% final) and hygromycine (200 ug/ml). The day before assay, cells were plated in DMEM with 10% FBS in a 50 μL volume at a density of 1.5×10^4 cells/well in a poly-D-lysine coated 384-well flat white-bottom plate (Corning Cat No 35661). Cells were incubated overnight at 37° C. in a humidified chamber with 5% CO2. The next day, medium was removed and cells were replaced with 40 ul/well of GoSensor™, 2 mM (Promega Cat No E1291). Cells were treated for 90 minutes at 25° C. to allow the substrate to equilibrate in the cells. Test compounds and Diethylenetriamine NONOate (DETA-NONOate) was diluted to 3 mM (20×) in serum-free CO2 independent medium and serially diluted at 4× dilutions to create 5× dose curve from which 10 ul was added to the wells (x μM concentration for test compound solution and 10 μM concentration for DETA-NONOate solution; wherein x is one of the following final concentrations).
For the kinetics studies, luminescence was measured right away for 0.2 sec per well with Envision (Perkin Elmer). For endpoint SAR screening, data were collected after 55 min incubation at room temperature.
Data were normalized to a high control using the following equation: 100*(Sample-Low Control)/(High Control-Low Control), where the low control is the average of sixteen DMSO (1%) control datapoints, and the high control is the average of sixteen Compound Y (30 μM) datapoints, wherein Compound Y is depicted below. Data were fit using a 4-parameter fit (log(agonist) vs. response—variable slope) using GraphPad Prism Software v.5. n=2 for all compounds. The Absolute EC50 was interpolated from the curve fit and is defined as the concentration at which a given compound elicits 50% of the high control response after data normalization as indicated above. Compounds failing to elicit a minimum response of 50% are reported as >30 μM or ND (not determined). For compounds run in duplicate or n higher than 2, the result herein given is the geometric mean of the several results obtained.

Row | EC50 [nM] | SMILES
1 | 1000 to 30000 | Cc1c(F)cc(Cc2nc(-c3ncc(Cl)c(NCC(O)(C(F)(F)F)C(F)(F)F)n3)cn3ccnc23)cc1F [Compound I-10]
2 | ≤ 100 | NC(=O)[C@](O)(CNc1nc(-c2cn3ccnc3c(Cc3cc(F)ccc3F)n2)ncc1F)C(F)(F)F [Compound I-5]
3 | 100 to 1000 | OC(CNc1nc(-c2cn3ccnc3c(Cc3ccccc3F)n2)ncc1Cl)C(F)(F)F (racemic) [Compound I-8]
4 | ≤ 100 | OC(CNc1nc(-c2cn3ccnc3c(Cc3ccccc3F)n2)ncc1F)(C(F)(F)F)C(F)(F)F [Compound I-2, 1,1,1,3,3,3-hexafluoro-2-(((5-fluoro-2-(8-(2-fluorobenzyl)imidazo[1,2-a]pyrazin-6-yl)pyrimidin-4-yl)amino)methyl)propan-2-ol]
5 | 100 to 1000 | NC(=O)[C@](O)(CNc1nc(-c2cn3ncnc3c(Cc3ccccc3F)n2)ncc1F)C(F)(F)F [Compound I-16]
6 | ≤ 100 | NC(=O)[C@](O)(CNc1nc(-c2cn3ccnc3c(Cc3ccccc3F)n2)ncc1F)C(F)(F)F [Compound I-3]

Continued, molecule first:

Row | SMILES | EC50 [nM]
7 | CC(C)(O)CNc1nc(-c2cn3c(Cl)cnc3c(Cc3ccccc3F)n2)ncc1F [Compound I-7] | 100 to 1000
8 | N#Cc1cnc(-c2cn3ncnc3c(Cc3ccccc3F)n2)nc1NCC(O)(C(F)(F)F)C(F)(F)F [Compound I-12] | 100 to 1000
9 | COc1cnc(-c2cn3ncnc3c(Cc3ccccc3F)n2)nc1NCC(O)C(F)(F)F (racemic) [Compound I-11] | 1000 to 30000
10 | OC(CNc1nc(-c2cn3ncnc3c(Cc3ccccc3F)n2)ncc1F)(C(F)(F)F)C(F)(F)F [Compound I-6] | 100 to 1000
11 | OCCNc1ccnc(-c2cn3ccnc3c(Cc3ccccc3F)n2)n1 [Compound I-9] | 100 to 1000
12 | O=P([O-])([O-])OC(CNc1nc(-c2cn3ccnc3c(Cc3ccccc3F)n2)ncc1F)(C(F)(F)F)C(F)(F)F.[Na+].[Na+] [Compound I-15] | 1000 to 30000

What follows are molecules tested on Sprague-Dawley Rats (assay: Blood pressure change in Sprague-Dawley rats). Settings: conscious rat, Compound I-15 (prodrug salt of I-2) dosed orally in water at 10 mg/kg, 160 minutes post-dose.
Description: Male rats (250-350 g body weight, supplied by Harlan Laboratories) were anesthetized with ketamine/xylazine and a heparinized saline fluid filled catheter implanted into the right femoral artery. The catheter was exteriorized between the scapula, capped, and the animal allowed to recover for at least 7 days post surgery prior to any compound testing. Prior to testing animals were maintained on normal diet, with free access to drinking water, under a 12 hour light-dark cycle.
On the day of experimentation, under inhaled isoflurane anesthesia, the catheter was uncapped and connected to a tether (Instech Labs) and pressure transducer (Harvard Apparatus). Blood pressure and heart rate were subsequently captured and analyzed with a dedicated data capture system (PowerLab, ADInstruments). Data sampling rates were set at 1 cycle per second. Once connected, each rat was allowed to recover from anesthesia and baseline blood pressure and heart rate levels were established in these conscious, freely-moving animals. Once baseline was established either vehicle (0.5% methylcellulose or 100% PEG400) or test article was administered orally (PO, 10 mg/kg) and the effects on blood pressure and heart rate monitored for up to 24 hours.

Row | SMILES | decrease of MAP (mean arterial pressure) below baseline
13 | OC(CNc1nc(-c2cn3ccnc3c(Cc3ccccc3F)n2)ncc1F)(C(F)(F)F)C(F)(F)F [Compound I-2, 1,1,1,3,3,3-hexafluoro-2-(((5-fluoro-2-(8-(2-fluorobenzyl)imidazo[1,2-a]pyrazin-6-yl)pyrimidin-4-yl)amino)methyl)propan-2-ol] | about 10 mmHg

Same assay, conditions: rat, dosed orally in water at 10 mg/kg, one hour post-dose

Row | SMILES | dosed Compound I-15 converted to Compound I-2 [%]
14 | O=P([O-])([O-])OC(CNc1nc(-c2cn3ccnc3c(Cc3ccccc3F)n2)ncc1F)(C(F)(F)F)C(F)(F)F.[Na+].[Na+] [Compound I-15] | 97.5
